Experiment [1] deals with T1, G2019S LRRK2 (Homo sapiens, UniProt Q5S007, G2019S).
T1 construct: expressed in transfected cells; host or cells: HEK293 (ATCC CRL-1573), transient transfection, mammalian expression vector with ubiquitin promoter
Briefly: LRRK2 degradation assay, HiBit-tagged G2019S LRRK2 expressed from plasmid in HEK293 cells (Nano-Glo Dual-Luciferase). Type of experiment: cell-based. Conditions: 24 hours. Put shortly: (§1)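 HEK293 cells co-transfected with C-terminal HiBiT-tagged LRRK2 (WT or G2019S, ubiquitin promoter) and firefly luciferase, then dosed 24 h at 37 °C. HiBiT/firefly ratio normalized to DMSO median; DC50 and Dmax from per-plate curve fits, six replicates over two days.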
For orientation: With HiBiT, luminescence reflects the tagged protein that the partner subunit can reach.

Experiment [2] has as its target T2, wildtype LRRK2 (Homo sapiens, UniProt Q5S007).
T2 construct: expressed in transfected cells; host or cells: HEK293 (ATCC CRL-1573), transient transfection, mammalian expression vector with ubiquitin promoter
Briefly: LRRK2 degradation assay, HiBit-tagged wildtype LRRK2 expressed from plasmid in HEK293 cells (Nano-Glo Dual-Luciferase). It is filed as cell-based. To be noted: 24 hours; for Dmax: read-out: **WT Dmax (%); for DC50: read-out: *WT DC50. Put shortly: as §1

The mark [3] stands for this setting: HiBit-tagged G2019S LRRK2 in HEK293 cells.
Setting [4] is: HiBit-tagged wildtype LRRK2 in HEK293 cells.
Where [5] appears, read: HiBit-tagged G2019S LRRK2, HEK293 cells.
Setting [6] is: HiBit-tagged wildtype LRRK2, HEK293 cells.

Where two headings read alike, the source gives them in different places.

T2 sequence (Q5S007 whole entry): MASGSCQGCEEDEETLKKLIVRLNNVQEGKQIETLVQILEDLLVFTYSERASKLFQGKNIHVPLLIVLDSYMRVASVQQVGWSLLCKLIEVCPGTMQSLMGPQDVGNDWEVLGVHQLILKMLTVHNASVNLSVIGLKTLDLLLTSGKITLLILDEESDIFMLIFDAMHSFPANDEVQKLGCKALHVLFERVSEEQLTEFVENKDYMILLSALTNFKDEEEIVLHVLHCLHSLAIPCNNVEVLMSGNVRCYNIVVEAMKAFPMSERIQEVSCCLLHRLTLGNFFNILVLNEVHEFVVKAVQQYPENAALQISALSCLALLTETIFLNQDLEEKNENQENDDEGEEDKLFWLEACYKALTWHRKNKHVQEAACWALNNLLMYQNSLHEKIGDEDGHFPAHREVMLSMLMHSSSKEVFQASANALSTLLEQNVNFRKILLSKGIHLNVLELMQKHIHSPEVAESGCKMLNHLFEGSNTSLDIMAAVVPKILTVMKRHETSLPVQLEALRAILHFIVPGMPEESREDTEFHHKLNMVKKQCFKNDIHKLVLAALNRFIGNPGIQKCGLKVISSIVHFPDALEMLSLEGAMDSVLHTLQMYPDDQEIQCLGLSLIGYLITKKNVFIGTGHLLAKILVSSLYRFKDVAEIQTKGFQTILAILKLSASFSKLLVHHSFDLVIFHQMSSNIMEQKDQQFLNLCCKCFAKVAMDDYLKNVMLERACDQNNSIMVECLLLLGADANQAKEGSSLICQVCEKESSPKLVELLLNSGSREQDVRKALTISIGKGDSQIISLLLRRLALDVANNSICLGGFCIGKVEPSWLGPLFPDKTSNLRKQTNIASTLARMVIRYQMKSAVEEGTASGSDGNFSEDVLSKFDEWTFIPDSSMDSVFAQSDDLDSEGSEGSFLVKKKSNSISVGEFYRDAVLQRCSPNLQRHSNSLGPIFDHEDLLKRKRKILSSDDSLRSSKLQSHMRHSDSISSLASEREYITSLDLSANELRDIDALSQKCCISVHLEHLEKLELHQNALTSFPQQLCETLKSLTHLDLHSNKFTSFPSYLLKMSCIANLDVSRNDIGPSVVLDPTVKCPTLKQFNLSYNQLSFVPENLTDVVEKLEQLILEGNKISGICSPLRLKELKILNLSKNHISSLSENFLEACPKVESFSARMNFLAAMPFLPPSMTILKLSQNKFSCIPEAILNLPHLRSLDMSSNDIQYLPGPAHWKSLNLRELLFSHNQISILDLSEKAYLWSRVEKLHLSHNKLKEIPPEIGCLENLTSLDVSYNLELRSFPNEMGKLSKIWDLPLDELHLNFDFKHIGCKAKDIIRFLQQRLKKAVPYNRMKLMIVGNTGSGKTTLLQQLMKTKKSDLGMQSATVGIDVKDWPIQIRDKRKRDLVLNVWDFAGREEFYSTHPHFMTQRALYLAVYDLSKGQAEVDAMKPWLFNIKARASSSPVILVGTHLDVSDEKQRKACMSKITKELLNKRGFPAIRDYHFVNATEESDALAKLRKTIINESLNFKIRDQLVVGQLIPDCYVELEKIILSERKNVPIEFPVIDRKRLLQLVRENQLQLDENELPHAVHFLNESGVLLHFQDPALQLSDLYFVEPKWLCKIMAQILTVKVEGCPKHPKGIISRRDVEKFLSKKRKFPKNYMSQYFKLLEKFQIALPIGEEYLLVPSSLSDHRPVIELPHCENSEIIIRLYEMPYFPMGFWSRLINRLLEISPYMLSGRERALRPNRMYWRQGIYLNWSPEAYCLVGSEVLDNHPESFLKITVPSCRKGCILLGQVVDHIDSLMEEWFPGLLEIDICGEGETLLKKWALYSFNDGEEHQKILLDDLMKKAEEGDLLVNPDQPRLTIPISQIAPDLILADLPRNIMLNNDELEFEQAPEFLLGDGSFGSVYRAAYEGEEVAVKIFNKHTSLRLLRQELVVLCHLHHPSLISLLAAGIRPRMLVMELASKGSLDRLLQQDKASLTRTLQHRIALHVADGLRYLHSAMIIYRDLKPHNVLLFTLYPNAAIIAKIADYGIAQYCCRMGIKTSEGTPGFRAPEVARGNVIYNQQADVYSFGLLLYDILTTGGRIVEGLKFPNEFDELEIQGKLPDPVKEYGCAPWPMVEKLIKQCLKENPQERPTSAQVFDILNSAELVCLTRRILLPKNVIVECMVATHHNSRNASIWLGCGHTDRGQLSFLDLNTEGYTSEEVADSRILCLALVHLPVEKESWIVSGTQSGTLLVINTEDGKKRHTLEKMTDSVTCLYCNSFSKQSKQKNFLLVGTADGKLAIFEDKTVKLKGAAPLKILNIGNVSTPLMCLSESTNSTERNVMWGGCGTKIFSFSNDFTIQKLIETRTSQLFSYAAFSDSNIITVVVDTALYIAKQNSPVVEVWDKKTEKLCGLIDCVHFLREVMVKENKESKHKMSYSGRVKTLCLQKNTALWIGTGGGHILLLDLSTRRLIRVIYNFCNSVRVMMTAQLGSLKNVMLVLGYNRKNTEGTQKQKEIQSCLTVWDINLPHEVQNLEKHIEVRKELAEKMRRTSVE
T1 sequence (Q5S007 whole entry G2019S): as the sequence (Q5S007 whole entry) above, with G2019S counted along it

Usually DC50 stands for the concentration at which degradation of the target reaches its halfway point. In general, Dmax refers to the largest share of the target that was removed. As to `CC1(Oc2ccc3[nH]nc(-c4cc(N5CCN(C[C@H]6CCN(CC7CCN(c8ccc9c(c8)C(=O)N(C8CCC(=O)NC8=O)C9=O)CC7)C(=O)C6)CC5)ncn4)c3c2)CC1` (single isomer, unassigned) [Compound 104], the DC50 in experiment [1] (setting [3]) and in experiment [2] (setting [4]) was less than 10 nM each time. For the same molecule, the Dmax was less than 50% in experiment [1] (setting [3]) and 50 to 70% in experiment [2] (setting [4]).
For the molecule `CC1(Oc2ccc3n[nH]c(-c4cc(N5CCC(Cc6cccc(CC7CCN(c8ccc9c(c8)C(=O)N(C8CCC(=O)NC8=O)C9=O)CC7)c6)CC5)ncn4)c3c2)CC1` (centres unmarked) [Compound 174, 2-(2,6-dioxo-3-piperidyl)-5-[4-[[3-[[1-[6-[5-(1-methylcyclopropoxy)-2H-indazol-3-yl]pyrimidin-4-yl]-4-piperidyl]methyl]phenyl]methyl]-1-piperidyl]isoindoline-1,3-dione], the half-maximal degradation concentration (DC50) in experiment [1] (setting [5]) and in experiment [2] (setting [6]) was not below 100 nM in each case.
As for `CC1(Oc2ccc3n[nH]c(-c4cc(N5CCC(Cc6ccc(CC7CCN(c8ccc9c(c8)C(=O)N(C8CCC(=O)NC8=O)C9=O)CC7)cc6)CC5)ncn4)c3c2)CC1` (centres unmarked) [Compound 171, 2-(2,6-dioxo-3-piperidyl)-5-[4-[[4-[[1-[6-[5-(1-methylcyclopropoxy)-2H-indazol-3-yl]pyrimidin-4-yl]-4-piperidyl]methyl]phenyl]methyl]-1-piperidyl]isoindoline-1,3-dione], the DC50 in experiment [1] (setting [5]) and in experiment [2] (setting [6]) was not below 100 nM throughout. For the same molecule, in experiment [1] (setting [5]), the Dmax was less than 50%.
In experiment [1] (setting [3]), `CC1(Oc2ccc3[nH]nc(-c4ccnc(N5CCC(C(=O)N6CCC(CC7CCN(c8ccc9c(c8)C(=O)N(C8CCC(=O)NC8=O)C9=O)CC7)CC6)CC5)c4)c3c2)CC1` (centres unmarked) [Compound 89, 2-(2,6-dioxopiperidin-3-yl)-5-(4-{[1-(1-{4-[5-(1-methylcyclopropoxy)-1H-indazol-3-yl]pyridin-2-yl}piperidine-4-carbonyl)piperidin-4-yl]methyl}piperidin-1-yl)-2,3-dihydro-1H-isoindole-1,3-dione] yielded a 50% degradation concentration (DC50) of 10 to 50 nM and a maximal degradation (Dmax) of less than 50%. In addition, in experiment [2] (setting [4]), the Dmax was less than 50% and the 50% degradation concentration (DC50) is 10 to 50 nM.
As to `CC1(Oc2ccc3[nH]nc(-c4cc(N5CCN(CC6CCN(CC7CCN(c8ccc9c(c8)C(=O)N(C8CCC(=O)NC8=O)C9=O)CC7)CC6)CC5)ncn4)c3c2)CC1` (centres unmarked) [Compound 76, 2-(2,6-dioxo-3-piperidyl)-5-[4-[[4-[[4-[6-[5-(1-methylcyclopropoxy)-1H-indazol-3-yl]pyrimidin-4-yl]piperazin-1-yl]methyl]-1-piperidyl]methyl]-1-piperidyl]isoindoline-1,3-dione], in experiment [1] (setting [3]), the DC50 was less than 10 nM and the Dmax fell in the range of 50 to 70%. In experiment [2] (setting [4]), the Dmax is less than 50% and the DC50 was less than 10 nM.
Turning to `CC1(Oc2ccc3[nH]nc(-c4ccnc(N5CCC(CC6CCN(C(=O)C7CCN(c8ccc9c(c8)C(=O)N(C8CCC(=O)NC8=O)C9=O)CC7)CC6)CC5)c4)c3c2)CC1` (centres unmarked) [Compound 93, 2-(2,6-dioxopiperidin-3-yl)-5-(4-{4-[(1-{4-[5-(1-methylcyclopropoxy)-1H-indazol-3-yl]pyridin-2-yl}piperidin-4-yl)methyl]piperidine-1-carbonyl}piperidin-1-yl)-2,3-dihydro-1H-isoindole-1,3-dione], in experiment [1] (setting [3]), the half-maximal degradation concentration (DC50) is 10 to 50 nM and the Dmax was less than 50%. In addition, in experiment [2] (setting [4]), the Dmax was in the range of 50 to 70% and the DC50 lay in the range of 10 to 50 nM.
Turning to `CC1(Oc2ccc3[nH]nc(-c4cc(N5CCN(C[C@@H]6CCN(CC7CCN(c8ccc9c(c8)C(=O)N(C8CCC(=O)NC8=O)C9=O)CC7)C(=O)C6)CC5)ncn4)c3c2)CC1` (single isomer, unassigned) [Compound 103], in experiment [1] (setting [3]), the half-maximal degradation concentration (DC50) was less than 10 nM and the Dmax was 50 to 70%. In experiment [2] (setting [4]), the Dmax was in the range of 50 to 70% and the half-maximal degradation concentration (DC50) was less than 10 nM.
In experiment [1] (setting [3]), `CC1(Oc2ccc3[nH]nc(-c4ccnc(N5CCC(O[C@H]6CC[C@H](OC7CCN(c8ccc9c(c8)C(=O)N(C8CCC(=O)NC8=O)C9=O)CC7)CC6)CC5)c4)c3c2)CC1` (some centres unmarked) [Compound 100, 2-(2,6-dioxopiperidin-3-yl)-5-(4-{[(1r,4r)-4-[(1-{4-[5-(1-methylcyclopropoxy)-1H-indazol-3-yl]pyridin-2-yl}piperidin-4-yl)oxy]cyclohexyl]oxy}piperidin-1-yl)-2,3-dihydro-1H-isoindole-1,3-dione] gave a DC50 of 10 to 50 nM and a Dmax of 50 to 70%. In addition, in experiment [2] (setting [4]), the Dmax is less than 50% and the 50% degradation concentration (DC50) was in the range of 10 to 50 nM.
In experiment [1] (setting [5]), `CC1(Oc2ccc3[nH]nc(-c4ccnc(N5CCC56CN(CC5CCN(CC7CCN(c8ccc9c(c8)C(=O)N(C8CCC(=O)NC8=O)C9=O)CC7)CC5)C6)c4)c3c2)CC1` (centres unmarked) [Compound 162, 2-(2,6-dioxo-3-piperidyl)-5-[4-[[4-[[1-[4-[5-(1-methylcyclopropoxy)-1H-indazol-3-yl]-2-pyridyl]-1,6-diazaspiro[3.3]heptan-6-yl]methyl]-1-piperidyl]methyl]-1-piperidyl]isoindoline-1,3-dione] yielded a DC50 not below 100 nM and a Dmax of less than 50%. For the same molecule, in experiment [2] (setting [6]), the greatest degradation seen (Dmax) was less than 50% and the 50% degradation concentration (DC50) is 50 to 100 nM.
Take `CC1(Oc2ccc3[nH]nc(-c4cc(N5CCN(CC(F)(F)C6CCN(CC7CCN(c8cccc9c8C(=O)N(C8CCC(=O)NC8=O)C9=O)CC7)CC6)CC5)ncn4)c3c2)CC1` (centres unmarked) [Compound 148, 4-[4-[[4-[1,1-difluoro-2-[4-[6-[5-(1-methylcyclopropoxy)-1H-indazol-3-yl]pyrimidin-4-yl]piperazin-1-yl]ethyl]-1-piperidyl]methyl]-1-piperidyl]-2-(2,6-dioxo-3-piperidyl)isoindoline-1,3-dione]: in experiment [1] (setting [3]), the DC50 fell in the range of 10 to 50 nM and the Dmax was 50 to 70%. For the same molecule, in experiment [2] (setting [4]), the maximal degradation (Dmax) was less than 50% and the DC50 was in the range of 10 to 50 nM.
Regarding `CC1(Oc2ccc3[nH]nc(-c4cc(N5CCN(Cc6cccc(CN7CCN(c8ccc9c(c8)C(=O)N(C8CCC(=O)NC8=O)C9=O)CC7)c6)CC5)ncn4)c3c2)CC1` (centres unmarked) [Compound 170, 2-(2,6-dioxo-3-piperidyl)-5-[4-[[3-[[4-[6-[5-(1-methylcyclopropoxy)-2H-indazol-3-yl]pyrimidin-4-yl]piperazin-1-yl]methyl]phenyl]methyl]piperazin-1-yl]isoindoline-1,3-dione], the DC50 in experiment [1] (setting [5]) and in experiment [2] (setting [6]) was not below 100 nM throughout.
Consider `CC1(Oc2ccc3[nH]nc(-c4cc(N5C[C@@H]6[C@H](CN7CCN(CC8CCN(c9ccc%10c(c9)C(=O)N(C9CCC(=O)NC9=O)C%10=O)CC8)CC7)[C@@H]6C5)ncn4)c3c2)CC1` (some centres unmarked) [Compound 74, 2-(2,6-dioxo-3-piperidyl)-5-[4-[[4-[[(r, 5s, 6s)-3-[6-[5-(1-methylcyclopropoxy)-1H-indazol-3-yl]pyrimidin-4-yl]-3-azabicyclo[3.1.0]hexan-6-yl]methyl]piperazin-1-yl]methyl]-1-piperidyl]isoindoline-1,3-dione], for which, in experiment [1] (setting [3]), the DC50 was 50 to 100 nM and the Dmax was less than 50%. For the same molecule, in experiment [2] (setting [4]), the greatest degradation seen (Dmax) is 50 to 70% and the half-maximal degradation concentration (DC50) is 50 to 100 nM.
In the case of `CC1(Oc2ccc3[nH]nc(-c4cc(N5CCC(CN6CC[C@@H](OC7CCN(c8ccc9c(c8)C(=O)N(C8CCC(=O)NC8=O)C9=O)CC7)C6)CC5)ncn4)c3c2)CC1` (stereo partly drawn) [Compound 119, 2-(2,6-dioxopiperidin-3-yl)-5-(4-{[(3R)-1-[(1-{6-[5-(1-methylcyclopropoxy)-1H-indazol-3-yl]pyrimidin-4-yl}piperidin-4-yl)methyl]pyrrolidin-3-yl]oxy}piperidin-1-yl)-2,3-dihydro-1H-isoindole-1,3-dione], in experiment [1] (setting [3]), the 50% degradation concentration (DC50) is less than 10 nM and the Dmax is less than 50%. For the same molecule, in experiment [2] (setting [4]), the Dmax is less than 50% and the DC50 is less than 10 nM.
In experiment [1] (setting [3]), `CC1(Oc2ccc3n[nH]c(-c4cc(N5CCC(CN6CCC(CN7CCN(c8ccc9c(c8)C(=O)N(C8CCC(=O)NC8=O)C9=O)CC7)CC6)CC5)ncn4)c3c2)CC1` (centres unmarked) [Compound 67, 2-(2,6-dioxo-3-piperidyl)-5-[4-[[1-[[1-[6-[5-(1-methylcyclopropoxy)-2H-indazol-3-yl]pyrimidin-4-yl]-4-piperidyl]methyl]-4-piperidyl]methyl]piperazin-1-yl]isoindoline-1,3-dione] came in with a 50% degradation concentration (DC50) of less than 10 nM and a maximal degradation (Dmax) not below 70%. Moreover, in experiment [2] (setting [4]), the maximal degradation (Dmax) is not below 70% and the DC50 was less than 10 nM.
As to `CC1(Oc2ccc3[nH]nc(-c4cc(N5CCC(C(=O)N6CCC(CN7CCN(c8ccc9c(c8)C(=O)N(C8CCC(=O)NC8=O)C9=O)CC7)CC6)CC5)ncn4)c3c2)CC1` (centres unmarked) [Compound 86, 2-(2,6-dioxopiperidin-3-yl)-5-(4-{[1-(1-{6-[5-(1-methylcyclopropoxy)-1H-indazol-3-yl]pyrimidin-4-yl}piperidine-4-carbonyl)piperidin-4-yl]methyl}piperazin-1-yl)-2,3-dihydro-1H-isoindole-1,3-dione], the DC50 in experiment [1] (setting [3]) and in experiment [2] (setting [4]) was less than 10 nM in each case. The greatest degradation seen (Dmax) in experiment [1] (setting [3]) and in experiment [2] (setting [4]) was 50 to 70% throughout.
In experiment [1] (setting [5]), `CC1(Oc2ccc3[nH]nc(-c4cc(N5CCC(CN6CC7(CCN7CC7CCN(c8ccc9c(c8)C(=O)N(C8CCC(=O)NC8=O)C9=O)CC7)C6)CC5)ncn4)c3c2)CC1` (centres unmarked) [Compound 176, 2-(2,6-dioxo-3-piperidyl)-5-[4-[[6-[[1-[6-[5-(1-methylcyclopropoxy)-1H-indazol-3-yl]pyrimidin-4-yl]-4-piperidyl]methyl]-1,6-diazaspiro[3.3]heptan-1-yl]methyl]-1-piperidyl]isoindoline-1,3-dione] returned a DC50 of less than 10 nM and a Dmax of less than 50%. For the same molecule, in experiment [2] (setting [6]), the Dmax lay within 50 to 70% and the 50% degradation concentration (DC50) is less than 10 nM.
